Assay results: patent publication US20250325402A1, “M[…] FOR I[…] METHODS OF USING THE SAME” ([…]., priority 2024, published 2025)

Key:
[1] = set-up: species or system pig
Description: Ex vivo assessment of ocular biodistribution of ICG with OCLX-SCDD Proof of Concept (POC) prototypes and Clearside needles at 900 and 1100 μm in pig eyes.
In this non-GLP study, we evaluated the ability of OCLX-SCDD to deliver accurately to the suprachoroidal space (SCS) and determined the optimal needle length for effective delivery. […] Ex vivo testing involved a comparative analysis of the dye's ocular biodistribution between OCLX-SCDD POCs 1-4 and the established Clearside device, allowing us to determine whether the new design offers improved delivery accuracy and effectiveness. Forty pig eyes were obtained from a farm 1 day prior to testing and SC 120 μl injections (5 mg/ml) were performed (one supertemporal injection site/eye) with ICG. Needles used included 900 μm and 1100 μm length samples from both Oculogenex and Clearside (CLS-900 and CLS-1100). One hour after injection, dissection of the eyes was performed. Images were taken with an iPhone 15 Pro camera after removal of retina, RPE/Choroidal tissue. The ICG-stained area was measured by a masked reader with Image-pro Plus 6 (Media Cybernetisc, Rockville, MD, USA) to objectively assess ICG distribution through software.

[2] = In vivo ocular biodistribution of ICG with OCLX-SCDD POC4 and Clearside needles at 1100 μm; set-up: species or system Yucatan minipig; conditions: for ICG stained area, total coverage area: ICG 5 mg/ml SC, 1 h after injection
Description: In Vivo assessment of ocular biodistribution of ICG with the OCLX-SCDD POC prototype and Clearside needles at 1100 μm in pig eyes.
Suprachoroidal injections enable precise, targeted delivery to the retina, retinal pigment epithelium (RPE), and choroid, potentially offering higher bioavailability to the diseased tissues while minimizing impact on anterior segment tissues. To improve the outcome of gene therapy for AMD through the SCS, we tested if the POC4 SCDD results in ICG dye at the back of the eye. […] This allows entrance into the suprachoroidal space in 4-month-old male minipigs (n=4). Indocyanine Green (ICG), 5 mg/ml, was injected using Clearside 1100 μm (OS) or POC4 of the OCLX-SCDD 1100 μm prototype device (OD) as follows: (1) Mark and confirm selected injection site; (2) Insert the microneedle, creating a small dimple on the ocular surface to allow the tissue to displace gently while the needle enters the suprachoroidal space; (3) Inject slowly and deliberately over 5 seconds to decrease discomfort; (4) After finishing the drug injection, hold the microinjector in place for an additional 3-5 seconds. Light pressure should be applied with a cotton swab after microinjector removal for about 5 seconds; and (5) Perform OCT imaging. (6) Euthanasia was performed according to the IACUC protocol, and 1 hour after injection, eyes were microdissected to assess ICG distribution.
The ICG stained area was measured with Image-pro Plus 6 equipment. […] One of four eyes injected with the OCLX-SCDD 1100 μm POC prototype device had trace amounts of ICG in the vitreous. Based on the results in FIG. 12, to avoid intravitreal injection, alpha prototypes were redesigned to have a shorter length, targeting 925 μm, and future pig studies were performed with this needle length.

[3] = set-up: species or system Yucatan minipig; conditions: minipig, in vivo
Description: OCLX-SCDD alpha prototype targeting of the SC space with ICG in pig eyes (FIG. 12).
Suprachoroidal injections enable precise, targeted delivery to the retina, retinal pigment epithelium (RPE), and choroid, potentially offering higher bioavailability to the diseased tissues while minimizing impact on anterior segment tissues. To improve SC gene therapy outcomes for AMD, we tested the alpha prototype device to determine whether the SCDD results in ICG dye distribution to the posterior pole. […] Indocyanine Green (ICG) (5 mg/ml), OS: 120 μl or OD: 150 μl, was injected using the OCLX-SCDD 925 μm alpha prototype as follows: (1) Mark and confirm selected injection site; (2) Insert the microneedle, being sure to create a small dimple on the ocular surface to allow the tissue to displace gently while the needle enters the suprachoroidal space; (3) Inject slowly and deliberately for 5 seconds; (4) After finishing the drug injection, hold the microinjector in place for an additional 5 seconds. Light pressure should be applied with a cotton swab after microinjector removal for about 5 seconds; and (5) Check IOP after injection. […]
To evaluate the effect of SC injection, images were taken after removal of the retina and RPE/Choroidal tissue (FIG. 14). The ICG stained area was measured with Image-pro Plus 6. […]

OCLX-SCDD prototypes that delivered ICG dye to the SCS alone, no biodistribution to other ocular tissues [1]: 100% | Comparison of ICG-stained area between POC4 and Clearside 1100 μm device ([2]; 1 hour after SC injection and microdissection): no significant difference | ICG stained area, total coverage area ([2]; minipigs in vivo, device Clearside 1100 μm): 55% | ICG stained area, total coverage area ([2]; minipigs in vivo, device OCLX-SCDD POC4 1100 μm): 55% | Eyes with trace amounts of ICG in the vitreous ([2]; minipigs in vivo, device OCLX-SCDD 1100 μm POC prototype): One of four | Eyes with successful targeting of the SC space [3]: 100%
SMILES: CC1(C)C(/C=C/C=C/C=C/C=C2\N(CCCCS(=O)(=O)O)c3ccc4ccccc4c3C2(C)C)=[N+](CCCCS(=O)(=O)[O-])c2ccc3ccccc3c21 [ICG, Indocyanine Green]
